From publication PMC12325145, “Preclinical evaluation of [^68Ga]Ga-AAZTA-FAPI-46: a novel PET tracer for targeting fibroblast activation protein (FAP)” (EJNMMI Radiopharmacy and Chemistry, 2025) come the findings set out here.

Usually IC50 stands for the concentration that gives 50% inhibition. Higher therefore signals weaker potency in that assay.

The test deals with T1, fibroblast activation protein (FAP) (Mus musculus, UniProt P97321).
T1 construct: murine FAP stably expressed in HEK293 cells (pCMV6-Kan/Neo-mFAP, Origene MC206606)
T1 sequence (P97321 1-761): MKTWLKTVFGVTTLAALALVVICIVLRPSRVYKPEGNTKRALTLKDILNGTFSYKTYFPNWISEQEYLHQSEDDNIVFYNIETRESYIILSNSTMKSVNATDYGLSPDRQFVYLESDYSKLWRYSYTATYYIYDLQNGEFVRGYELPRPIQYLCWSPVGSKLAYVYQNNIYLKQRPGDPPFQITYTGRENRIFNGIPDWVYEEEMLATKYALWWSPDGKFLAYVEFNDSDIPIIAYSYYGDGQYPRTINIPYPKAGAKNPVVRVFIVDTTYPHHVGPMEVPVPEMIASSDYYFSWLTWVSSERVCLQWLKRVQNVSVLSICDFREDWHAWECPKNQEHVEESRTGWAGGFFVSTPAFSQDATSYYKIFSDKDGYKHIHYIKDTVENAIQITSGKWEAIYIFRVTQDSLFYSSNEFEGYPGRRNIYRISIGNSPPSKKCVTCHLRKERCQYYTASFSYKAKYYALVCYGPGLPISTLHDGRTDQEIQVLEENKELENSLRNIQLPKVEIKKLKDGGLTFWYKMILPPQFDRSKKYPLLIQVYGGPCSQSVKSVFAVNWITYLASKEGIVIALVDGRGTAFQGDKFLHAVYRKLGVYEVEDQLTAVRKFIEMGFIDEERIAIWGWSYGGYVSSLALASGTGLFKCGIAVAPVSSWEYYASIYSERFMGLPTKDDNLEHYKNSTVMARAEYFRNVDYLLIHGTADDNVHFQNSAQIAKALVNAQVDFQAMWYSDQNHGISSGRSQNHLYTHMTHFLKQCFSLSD
Put plainly: radioligand competition with unlabelled tracer on HEK293T-FAP cells, […] °C, […] h. The format is cell-based. A general note: Loss of bound radioactivity is the signal in a displacement assay; it reports binding, not function.

On to `CN(CCCN1CCN(C(=O)CCCCC2(N(CC(=O)[O-])CC(=O)[O-])CN(CC(=O)[O-])CCN(CC(=O)[O-])C2)CC1)c1ccc2nccc(C(=O)NCC(=O)N3CC(F)(F)C[C@@H]3C#N)c2c1.[68Ga+3]` [[^68Ga]Ga-AAZTA-FAPI-46], for which the IC50 came out at 4.61 ± 0.21 nM.
